Assay results from publication PMC4505687, “5-HT3 Receptor Brain-Type B-Subunits are Differentially Expressed in Heterologous Systems” (ACS Chemical Neuroscience, 2015).
Read-outs that look alike come from different tables or passages of the source. Marks after values point to notes of the source that are not given here.

Key:
5-HT3ABr1 receptors [1] = target: T1, 5-HT3ABr1 receptors (Homo sapiens, UniProt O95264+P46098); assay: 5-HT-induced macroscopic currents, two-electrode voltage-clamp in Xenopus oocytes; assay type: cell-based; conditions: Hill slope, 5-HT3ABr1 receptors in oocytes
T1 sequence (P46098 24-478): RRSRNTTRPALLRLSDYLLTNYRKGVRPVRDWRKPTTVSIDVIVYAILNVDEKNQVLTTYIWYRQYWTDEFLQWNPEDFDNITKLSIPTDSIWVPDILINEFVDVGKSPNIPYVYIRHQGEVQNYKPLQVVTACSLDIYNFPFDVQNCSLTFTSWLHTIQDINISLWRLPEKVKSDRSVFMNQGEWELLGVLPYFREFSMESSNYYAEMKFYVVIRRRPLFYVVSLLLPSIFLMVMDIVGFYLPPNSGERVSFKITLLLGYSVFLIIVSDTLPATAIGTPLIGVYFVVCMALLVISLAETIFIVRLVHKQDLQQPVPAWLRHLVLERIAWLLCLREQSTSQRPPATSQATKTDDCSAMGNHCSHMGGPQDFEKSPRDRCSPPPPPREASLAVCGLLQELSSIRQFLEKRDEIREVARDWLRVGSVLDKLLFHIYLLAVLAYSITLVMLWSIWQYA
T1 sequence (O95264 1-430 isoform O95264-2): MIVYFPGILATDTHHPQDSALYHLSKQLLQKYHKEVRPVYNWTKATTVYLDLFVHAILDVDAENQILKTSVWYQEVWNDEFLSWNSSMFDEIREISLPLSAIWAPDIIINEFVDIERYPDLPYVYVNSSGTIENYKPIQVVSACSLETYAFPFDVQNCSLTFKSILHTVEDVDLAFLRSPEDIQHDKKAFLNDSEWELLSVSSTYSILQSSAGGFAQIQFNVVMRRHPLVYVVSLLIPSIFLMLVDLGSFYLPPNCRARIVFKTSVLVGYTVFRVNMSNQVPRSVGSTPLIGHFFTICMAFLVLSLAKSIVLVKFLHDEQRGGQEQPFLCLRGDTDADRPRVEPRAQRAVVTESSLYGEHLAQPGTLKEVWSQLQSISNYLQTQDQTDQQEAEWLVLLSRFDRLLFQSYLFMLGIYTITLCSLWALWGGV
Procedure: (§1) Xenopus laevis oocyte-positive females were purchased from NASCO (Fort Atkinson, WI) and maintained according to standard methods. Harvested stage V–VI Xenopus oocytes were washed in four changes of Ca-free ND96 (96 mM NaCl, 2 mM KCl, 1 mM MgCl2, 5 mM HEPES, pH 7.5), defolliculated in 1.5 mg mL^–1 collagenase Type 1A for approximately 2 h, washed again in four changes of ND96, and then stored in ND96 containing 2.5 mM sodium pyruvate, […] gentamycin, and 0.7 mM theophylline.
(§2) cDNA was cloned into pGEMHE for oocyte expression, and pcDNA3.1 (Invitrogen, Paisley, U.K.) for expression in HEK 293 cells. Mutagenesis (Figure 1) was performed using QuikChange (Agilent Technologies Inc., Santa Clara, CA). cRNA was in vitro transcribed from linearized pGEMHE cDNA template using the mMessage mMachine T7 Transcription kit (Ambion, Austin, TX). 5-HT3A was linearized with SphI and 5-HT3B cDNA with NheI. Stage V and VI oocytes were injected with 50 nL of ∼400 ng μL^–1 cRNA, and currents were recorded 1–4 days postinjection. Ratios of 1:3 (5-HT3A:5-HT3B/5-HT3Br1/5-HT3Br2) were used for the expression of heteromeric receptors unless otherwise stated.
(§3) Currents were recorded at a frequency of 5 kHz and filtered at 1 kHz. Microelectrodes were fabricated from borosilicate glass (GC120TF-10, Harvard Apparatus, Edenbridge, Kent, U.K.) using a one stage horizontal pull (P-87, Sutter Instrument Company, Novato, CA) and filled with 3 M KCl. Pipet resistances ranged from 1.0 to 2.0 MΩ. […] Drug application was via a simple gravity fed system calibrated to run at the same rate.

5-HT3A receptors [2] = target: T2, 5-HT3A receptors (Homo sapiens, UniProt P46098); assay: as above; assay type: cell-based; conditions: Hill slope, 5-HT3A receptors in oocytes
T2 construct: expressed in transfected cells; host or cells: Xenopus laevis oocytes (cRNA from pGEMHE) or HEK293 cells (pcDNA3.1)
T2 sequence (P46098 24-478): T1 sequence (P46098 24-478)
Procedure: as §1, §2, §3

5-HT3AB receptors [3] = target: T3, 5-HT3AB receptors (Homo sapiens, UniProt O95264+P46098); assay: as above; assay type: cell-based; conditions: Hill slope, 5-HT3AB receptors in oocytes
T3 construct: expressed in transfected cells; host or cells: Xenopus laevis oocytes (cRNA from pGEMHE) or HEK293 cells (pcDNA3.1), A:B ratio 1:3
T3 sequence (P46098 24-478): T1 sequence (P46098 24-478)
T3 sequence (O95264 22-441): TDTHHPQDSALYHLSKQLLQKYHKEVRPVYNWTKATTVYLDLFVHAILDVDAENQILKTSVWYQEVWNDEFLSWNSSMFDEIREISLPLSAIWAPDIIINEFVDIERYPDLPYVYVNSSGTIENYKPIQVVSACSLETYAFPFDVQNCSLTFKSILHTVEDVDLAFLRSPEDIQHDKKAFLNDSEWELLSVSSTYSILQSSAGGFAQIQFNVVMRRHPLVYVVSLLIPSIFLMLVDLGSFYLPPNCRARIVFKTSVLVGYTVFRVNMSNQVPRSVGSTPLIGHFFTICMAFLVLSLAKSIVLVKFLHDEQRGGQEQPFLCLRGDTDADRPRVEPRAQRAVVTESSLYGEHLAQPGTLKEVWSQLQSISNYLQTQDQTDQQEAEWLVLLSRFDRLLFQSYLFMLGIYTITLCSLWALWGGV
Procedure: as §1, §2, §3

5-HT3ABr1 receptors [4] = target: T1, 5-HT3ABr1 receptors; assay: Fluorescent membrane potential dye (FlexStation) in transfected HEK293 cells; assay type: cell-based; conditions: Hill slope, 5-HT3ABr1 receptors in HEK293 cells, mean ± SEM
Procedure: (§4) Human embryonic kidney (HEK) 293 cells were maintained on 90 mm tissue culture plates at 37 °C and 7% CO2 in a humidified atmosphere. They were cultured in DMEM:F12 with GlutaMAX I media (Dulbecco’s modified Eagle’s Medium/Nutrient Mix F12 (1:1), Invitrogen, Paisley, U.K.) containing 10% fetal calf serum. Cells in 90 mm dishes were transfected using polyethylenimine (PEI). Then 30 μL of PEI (1 mg/mL), 4 μL of cDNA (1 mg/mL) and 1 mL of DMEM were incubated for 10 min at room temperature, added dropwise to a 80–90% confluent plate, and incubated for 2–3 days. For Flexstation studies, cells were transferred to 96-well plates and allowed to adhere overnight before use.
as §2, with “[…] This was as previously described.[22] […] The cells” for “Ratios of 1:3 (5-HT3A:5-HT3B/5-HT3Br1/5-HT3Br2)”, “incubated at 37 °C” for “used”, “45 min, and then fluorescence was measured in a FlexStation (Molecular Devices) at 2 s intervals for 200 s. […] Analysis and curve fitting was performed using Prism (GraphPad Software, San Diego, CA, www.graphpad.com).” for “the expression of heteromeric receptors unless otherwise stated.”

5-HT3A receptors [5] = target: T2, 5-HT3A receptors; assay: as above; assay type: cell-based; conditions: Hill slope, 5-HT3A receptors in HEK293 cells, mean ± SEM
Procedure: as §4
as §2, with “[…] This was as previously described.[22] […] The cells” for “Ratios of 1:3 (5-HT3A:5-HT3B/5-HT3Br1/5-HT3Br2)”, “incubated at 37 °C” for “used”, “45 min, and then fluorescence was measured in a FlexStation (Molecular Devices) at 2 s intervals for 200 s. […] Analysis and curve fitting was performed using Prism (GraphPad Software, San Diego, CA, www.graphpad.com).” for “the expression of heteromeric receptors unless otherwise stated.”

5-HT3AB receptors [6] = target: T3, 5-HT3AB receptors; assay: as above; assay type: cell-based; conditions: Hill slope, 5-HT3AB receptors in HEK293 cells, mean ± SEM
Procedure: as §4
as §2, with “[…] This was as previously described.[22] […] The cells” for “Ratios of 1:3 (5-HT3A:5-HT3B/5-HT3Br1/5-HT3Br2)”, “incubated at 37 °C” for “used”, “45 min, and then fluorescence was measured in a FlexStation (Molecular Devices) at 2 s intervals for 200 s. […] Analysis and curve fitting was performed using Prism (GraphPad Software, San Diego, CA, www.graphpad.com).” for “the expression of heteromeric receptors unless otherwise stated.”

5-HT3ABr2 receptors [7] = target: T4, 5-HT3ABr2 receptors (Homo sapiens, UniProt P46098); assay: as above; assay type: cell-based; conditions: Hill slope, 5-HT3ABr2 receptors in HEK293 cells, mean ± SEM
T4 construct: expressed in transfected cells; host or cells: Xenopus laevis oocytes (cRNA from pGEMHE) or HEK293 cells (pcDNA3.1), A:Br2 ratio 1:3 unless otherwise stated
T4 sequence (P46098 24-478): T1 sequence (P46098 24-478)
Procedure: as §4
as §2, with “[…] This was as previously described.[22] […] The cells” for “Ratios of 1:3 (5-HT3A:5-HT3B/5-HT3Br1/5-HT3Br2)”, “incubated at 37 °C” for “used”, “45 min, and then fluorescence was measured in a FlexStation (Molecular Devices) at 2 s intervals for 200 s. […] Analysis and curve fitting was performed using Prism (GraphPad Software, San Diego, CA, www.graphpad.com).” for “the expression of heteromeric receptors unless otherwise stated.”

5-HT3ABr2 receptors [8] = target: T4, 5-HT3ABr2 receptors; assay: 5-HT-induced macroscopic currents, two-electrode voltage-clamp in Xenopus oocytes; assay type: cell-based
Procedure: as §1, §2, §3

5-HT3A receptors [9] = target: T2, 5-HT3A receptors; conditions: cited from earlier work
[10] = system: 5-HT3 receptors (5-HT3A, 5-HT3AB, 5-HT3ABr1, 5-HT3ABr2); assay: Competition binding against [3H]granisetron at different 5-HT3 receptors expressed in HEK293 cells
Procedure: Transfected HEK 293 cells were scraped into 1 mL of ice-cold HEPES buffer (10 mM, pH 7.4) and frozen. […] For competition binding (8 point), reactions were incubated for at least 1 h at 4 °C. Reactions were terminated by vacuum filtration using a Brandel cell harvester onto GF/B filters presoaked in 0.3% polyethylenimine. Radioactivity was determined by scintillation counting using a Beckman BCLS6500 instrument (Fullerton, CA). Individual competition binding experiments were analyzed by iterative curve fitting using Prism.

[11] = competition with 1 nM [3H]granisetron, values shown only in Figure 5

`NCCc1c[nH]c2ccc(O)cc12` [5-HT, 5-hydroxytryptamine] gave a nH (5-HT3ABr1 receptors [1]) of 1.0, a nH (5-HT3A receptors [2]) of 2.6 and a nH (5-HT3AB receptors [3]) of 1.0. For the same compound, the “nH, parameters from functional data” value (5-HT3ABr1 receptors [4]) was 1.5 ± 0.3 ^b, the “nH, parameters from functional data” value (5-HT3A receptors [5]) was 3.6 ± 0.8 and the “nH, parameters from functional data” value (5-HT3AB receptors [6]) was 1.3 ± 0.2 ^b. For the same compound, the “nH, parameters from functional data” value (5-HT3ABr2 receptors [7]) was 2.9 ± 0.4 ^c.
For `C=C(C)[C@@H]1[C@H]2OC(=O)[C@@H]1[C@]1(O)C[C@H]3O[C@]34C(=O)O[C@H]2[C@]14C` [picrotoxinin], the IC50 (5-HT3ABr2 receptors [8]) is given as 17 µM and the IC50 (5-HT3A receptors [9]) is given as 11 µM.
With `O=C1c2cccc3c2[C@H](CCC3)CN1[C@@H]1CN2CCC1CC2` [palonosetron] the “Ki, rank order of potency and comparison between receptor subtypes” value (shortened to “Ki, rank order”) [10, 11] was “palonosetron > granisetron > MDL-72222 > mCPBG > d-TC”.
In the case of `CN1[C@@H]2CC[C@H]1C[C@@H](OC(=O)c1cc(Cl)cc(Cl)c1)C2` [MDL-72222], the “Ki, rank order” value [10, 11] is reported as “palonosetron > granisetron > MDL-72222 > mCPBG > d-TC”.
With `NC(N)=NC(N)=Nc1cccc(Cl)c1` [mCPBG] the “Ki, rank order” value [10, 11] was “palonosetron > granisetron > MDL-72222 > mCPBG > d-TC”.
For `COc1cc2c3cc1Oc1cc(ccc1O)C[C@@H]1c4c(cc(OC)c(O)c4Oc4ccc(cc4)C[C@@H]3N(C)CC2)CC[N+]1(C)C` [d-TC, d-tubocurarine], the “Ki, rank order” value [10] was “palonosetron > granisetron > MDL-72222 > mCPBG > d-TC”.
